Assay results published in paper PMC12203311, “Design, synthesis, in silico and in vitro evaluation of pyrrole–indole hybrids as dual tubulin and aromatase inhibitors with potent anticancer activities” (RSC Advances, 2025).
Where two headings read alike, the source gives them in different places.

Tests used:
[1] = test system: HL-60 (TB); test: NCI60 five-dose screen; assay type: cell-based; details: Homo sapiens, leukemia; for CC50: read-out: LC50 (the source's name)
[2] = test system: MOLT-4; test: NCI60 five-dose screen; assay type: cell-based; details: Homo sapiens, MOLT-4, leukemia; for CC50: read-out: LC50 (the source's name)
[3] = test system: RPMI-8226; test: NCI60 five-dose screen; assay type: cell-based; details: Homo sapiens, RPMI-8226, leukemia; for CC50: read-out: LC50 (the source's name)
[4] = test system: HOP-62; test: NCI60 five-dose screen; assay type: cell-based; details: Homo sapiens, HOP-62, NSC lung cancer; for CC50: read-out: LC50 (the source's name)
[5] = test system: HOP-92; test: NCI60 five-dose screen; assay type: cell-based; details: Homo sapiens, HOP-92, NSC lung cancer; for CC50: read-out: LC50 (the source's name)
[6] = test system: NCI-H226; test: NCI60 five-dose screen; assay type: cell-based; details: Homo sapiens, NCI-H226, NSC lung cancer; for CC50: read-out: LC50 (the source's name)
[7] = test system: NCI-H23; test: NCI60 five-dose screen; assay type: cell-based; details: Homo sapiens, NCI-H23, NSC lung cancer; for CC50: read-out: LC50 (the source's name)
[8] = test system: NCI-H460; test: NCI60 five-dose screen; assay type: cell-based; details: Homo sapiens, NCI-H460, NSC lung cancer; for CC50: read-out: LC50 (the source's name)
[9] = test system: HCC-2998; test: NCI60 five-dose screen; assay type: cell-based; details: Homo sapiens, HCC-2998, colon cancer; for CC50: read-out: LC50 (the source's name)
[10] = test system: HCT-116; test: NCI60 five-dose screen; assay type: cell-based; details: Homo sapiens, HCT-116, colon cancer; for CC50: read-out: LC50 (the source's name)
[11] = test system: HCT-15; test: NCI60 five-dose screen; assay type: cell-based; details: Homo sapiens, HCT-15, colon cancer; for CC50: read-out: LC50 (the source's name)
[12] = test system: HT29; test: NCI60 five-dose screen; assay type: cell-based; details: Homo sapiens, HT-29, HT29, colon cancer; for CC50: read-out: LC50 (the source's name)
[13] = test system: SF-295; test: NCI60 five-dose screen; assay type: cell-based; details: Homo sapiens, SF-295, CNS cancer; for CC50: read-out: LC50 (the source's name)
[14] = test system: LOX IMVI; test: NCI60 five-dose screen; assay type: cell-based; details: Homo sapiens, melanoma; for CC50: read-out: LC50 (the source's name)
[15] = test system: M14; test: NCI60 five-dose screen; assay type: cell-based; details: Homo sapiens, M14, melanoma; for CC50: read-out: LC50 (the source's name)
[16] = test system: MDA-MB-435; test: NCI60 five-dose screen; assay type: cell-based, human; details: for CC50: read-out: LC50 (the source's name)
[17] = test system: SK-MEL-2; test: NCI60 five-dose screen; assay type: cell-based; details: Homo sapiens, SK-MEL-2, melanoma; for CC50: read-out: LC50 (the source's name)
[18] = test system: UACC-257; test: NCI60 five-dose screen; assay type: cell-based; details: Homo sapiens, UACC-257, melanoma; for CC50: read-out: LC50 (the source's name)
[19] = test system: IGROV1; test: NCI60 five-dose screen; assay type: cell-based; details: Homo sapiens, IGROV-1; IGROV1, ovarian cancer
[20] = test system: OVCAR-3; test: NCI60 five-dose screen; assay type: cell-based; details: Homo sapiens, OVCAR-3, ovarian cancer; for CC50: read-out: LC50 (the source's name)
[21] = test system: OVCAR-5; test: NCI60 five-dose screen; assay type: cell-based; details: Homo sapiens, OVCAR-5, ovarian cancer; for CC50: read-out: LC50 (the source's name)
[22] = test system: OVCAR-8; test: NCI60 five-dose screen; assay type: cell-based; details: Homo sapiens, OVCAR-8, ovarian cancer; for CC50: read-out: LC50 (the source's name)
[23] = test system: CAKI-1; test: NCI60 five-dose screen; assay type: cell-based; details: Homo sapiens, CAKI-1, renal cancer; for CC50: read-out: LC50 (the source's name)
[24] = test system: UO-31; test: NCI60 five-dose screen; assay type: cell-based; details: Homo sapiens, UO-31, renal cancer; for CC50: read-out: LC50 (the source's name)
[25] = test system: PC-3; test: NCI60 five-dose screen; assay type: cell-based; details: Homo sapiens, PC-3, prostate cancer; for CC50: read-out: LC50 (the source's name)
[26] = test system: DU-145; test: NCI60 five-dose screen; assay type: cell-based; details: Homo sapiens, DU-145, prostate cancer; for CC50: read-out: LC50 (the source's name)
[27] = test system: MDA-MB-231/ATCC; test: NCI60 five-dose screen; assay type: cell-based; details: Homo sapiens, breast cancer; for CC50: read-out: LC50 (the source's name)
[28] = test system: HS 578T; test: NCI60 five-dose screen; assay type: cell-based; details: Homo sapiens, breast cancer; for CC50: read-out: LC50 (the source's name)
[29] = test system: BT-549; test: NCI60 five-dose screen; assay type: cell-based; details: Homo sapiens, BT-549, breast cancer; for CC50: read-out: LC50 (the source's name)
[30] = test system: MDA-MB-468; test: NCI60 five-dose screen; assay type: cell-based; details: Homo sapiens, MDA-MB-468, breast cancer; for CC50: read-out: LC50 (the source's name)
[31] = test system: T47D breast cancer cell line; test: Cytotoxicity MTT assay, T47D; assay type: cell-based, human; details: Homo sapiens, T47D; MTT, 48 hours
In short: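 10 000 cells/well, overnight attachment; compound 48 h in DMEM/10% FBS, 37 °C, 5% CO2. MTT 0.5 mg mL^−1, 3 h; formazan in DMSO; A570. % viability vs DMSO vehicle.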

[32] = Homo sapiens, MDA-MB-435, MDA-MB-435, melanoma
[33] = Homo sapiens, MDA-MB-435, melanoma

## CCc1cc[nH]c1/C=N/NC(=O)c1[nH]c2ccc(Br)cc2c1-c1ccccc1 [Derivative 3u, (E)-5-Bromo-N′-((3-ethyl-1H-pyrrol-2-yl)methylene)-3-phenyl-1H-indole-2-carbohydrazide]
[1]
  GI50: 2.03 µM
  CC50: 24.3 µM
[2]
  GI50: 2.37 µM
  CC50: 55.1 µM
[3]
  GI50: 2.04 µM
  CC50: 78.6 µM
[4]
  GI50: 3.77 µM
  CC50: 45.8 µM
[5]
  GI50: 3.8 µM
  CC50: 44.3 µM
[6]
  GI50: 1.97 µM
  CC50: 37.7 µM
[7]
  GI50: 2.66 µM
  CC50: 38.3 µM
[8]
  GI50: 1.23 µM
  CC50: 36.7 µM
[9]
  GI50: 4.11 µM
  CC50: 42.4 µM
[10]
  GI50: 2.5 µM
  CC50: 44 µM
[11]
  GI50: 1.03 µM
  CC50: 38.8 µM
[12]
  GI50: 2.17 µM
  CC50: 39.3 µM
[13]
  GI50: 2.29 µM
  CC50: 37.1 µM
[14]
  GI50: 2.42 µM
  CC50: 32.3 µM
[15]
  GI50: 1.62 µM
  CC50: 23.7 µM
[16]; [32]
  CC50: 41.6 µM
[16]; [33]
  GI50: 4.12 µM
[17]
  GI50: 6.77 µM
  CC50: 45.8 µM
[18]
  GI50: 3.78 µM
  CC50: 40.8 µM
[19]
  GI50: 3.52 µM
  LC50 (concentration causing 50% net cell kill): 44 µM
[20]
  GI50: 3.2 µM
  CC50: 44 µM
[21]
  GI50: 6.77 µM
  CC50: 45.4 µM
[22]
  GI50: 3.02 µM
  CC50: 39.8 µM
[23]
  GI50: 6.04 µM
  CC50: 45.3 µM
[24]
  GI50: 2.94 µM
  CC50: 39.7 µM
[25]
  GI50: 3.09 µM
  CC50: 47.6 µM
[26]
  GI50: 4.3 µM
  CC50: 42.3 µM
[27]
  GI50: 5.02 µM
  CC50: 44.7 µM
[28]
  GI50: 3.6 µM
  CC50: 61.8 µM
[29]
  GI50: 2.7 µM
  CC50: 34.2 µM
[30]
  GI50: 2.72 µM
  CC50: 32.1 µM
[31]
  IC50: 6.2 ± 3.6 µM

## CCOC(=O)c1cc(/C=N/NC(=O)c2[nH]c3ccc(Br)cc3c2-c2ccccc2)c[nH]1 [Derivative 3v, Ethyl (E)-4-((2-(5-bromo-3-phenyl-1H-indole-2-carbonyl)hydrazono)methyl)-1H-pyrrole-2-carboxylate]
[1]
  GI50: 4.68 µM
  CC50: > 100 µM
[2]
  GI50: 3.91 µM
  CC50: > 100 µM
[3]
  GI50: 3.84 µM
  CC50: > 100 µM
[4]
  GI50: 6.66 µM
  CC50: 69.2 µM
[5]
  GI50: 7.99 µM
  CC50: > 100 µM
[6]
  GI50: 4.21 µM
  CC50: 46.2 µM
[7]
  GI50: 3.42 µM
  CC50: 40.4 µM
[8]
  GI50: 3.49 µM
  CC50: 34.3 µM
[9]
  GI50: 4.17 µM
  CC50: 42.1 µM
[10]
  GI50: 3.42 µM
  CC50: 50.5 µM
[11]
  GI50: 3.21 µM
  CC50: 35.7 µM
[12]
  GI50: 3.33 µM
  CC50: 35.3 µM
[13]
  GI50: 3.04 µM
  CC50: 37.2 µM
[14]
  GI50: 4.31 µM
  CC50: 41.1 µM
[15]
  GI50: 3.54 µM
  CC50: 41.3 µM
[16]; [32]
  CC50: 9.35 µM
[16]; [33]
  GI50: 1.54 µM
[16]; MDA-MB-435, melanoma
  CC50: 9.53 µM
[17]
  GI50: 4.37 µM
  CC50: 47.3 µM
[18]
  GI50: 11.7 µM
  CC50: 77.8 µM
[19]
  GI50: 3.75 µM
[20]
  GI50: 3.23 µM
  CC50: 33.4 µM
[21]
  GI50: 3.49 µM
  CC50: 37.4 µM
[22]
  GI50: 3.65 µM
  CC50: 38.5 µM
[23]
  GI50: 3.2 µM
  CC50: 40.2 µM
[24]
  GI50: 4.21 µM
  CC50: 61.9 µM
[25]
  GI50: 4.07 µM
  CC50: > 100 µM
[26]
  GI50: 3.36 µM
  CC50: 33.4 µM
[27]
  GI50: 3.27 µM
  CC50: 33.8 µM
[28]
  GI50: 3.11 µM
  CC50: > 100 µM
[29]
  GI50: 13.4 µM
  CC50: 60.2 µM
[30]
  GI50: 2.6 µM
  CC50: 34 µM
[31]
  IC50: 24.9 ± 8.4 µM
